The values that follow come from patent US20260355212A1 (priority 2022, published 2026).

Like-named read-outs stand apart in the source and are kept apart here.

As usually defined, the IC50 is the concentration that inhibits the measured activity by half.

For assay [1], the target named is SARS-CoV-1 Mpro (Severe acute respiratory syndrome coronavirus, UniProt P0C6X7). The experiment in a line: biochemical.
The target of assay [2] is MERS Mpro (Middle East respiratory syndrome-related coronavirus, UniProt K9N7C7). In words: biochemical. More on the design: species or system MERS-CoV.
Chain of MERS Mpro (K9N7C7 3248-3553 limits assumed): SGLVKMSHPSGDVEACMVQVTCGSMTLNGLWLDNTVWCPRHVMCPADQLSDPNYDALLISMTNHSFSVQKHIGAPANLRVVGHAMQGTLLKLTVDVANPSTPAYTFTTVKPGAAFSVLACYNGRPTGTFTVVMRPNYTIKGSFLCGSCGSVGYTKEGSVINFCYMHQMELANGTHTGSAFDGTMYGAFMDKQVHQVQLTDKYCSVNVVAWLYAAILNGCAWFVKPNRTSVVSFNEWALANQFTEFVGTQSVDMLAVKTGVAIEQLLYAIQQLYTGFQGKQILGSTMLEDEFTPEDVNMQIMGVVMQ
Assay [3] deals with HCoV-OC43 Mpro (Human coronavirus OC43, UniProt P0C6X6). The experiment in a line: HCoV-OC43 Mpro enzymatic inhibition assay (fluorescence). The format is biochemical. The essentials:
(§1)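 Steps: compound dilution series (3-fold, 10 doses) dispensed; Mpro added and pre-incubated 30 min at room temperature; substrate added; plates incubated 60 min at 30 °C; fluorescence measured at Ex/Em=340 nm/490 nm.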

The target of assay [4] is HCoV-NL63 Mpro (Human coronavirus NL63, UniProt P0C6X5). In words: HCoV-NL63 Mpro enzymatic inhibition assay (fluorescence). The class given is biochemical. The procedure, abridged: as §1
Chain of HCoV-NL63 Mpro (P0C6X5 2940-3242 limits assumed): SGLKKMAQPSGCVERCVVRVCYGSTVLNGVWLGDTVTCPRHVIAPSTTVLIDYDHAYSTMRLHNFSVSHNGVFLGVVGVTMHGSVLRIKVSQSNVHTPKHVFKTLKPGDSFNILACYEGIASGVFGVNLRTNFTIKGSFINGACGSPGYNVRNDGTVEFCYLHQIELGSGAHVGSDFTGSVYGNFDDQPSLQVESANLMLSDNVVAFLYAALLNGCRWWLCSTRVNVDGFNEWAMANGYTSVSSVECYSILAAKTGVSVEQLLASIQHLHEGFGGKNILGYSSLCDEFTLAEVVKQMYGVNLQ
Assay [5] concerns the target HCoV-HKU1 Mpro (Human coronavirus HKU1, UniProt P0C6X2). In words: HCoV-HKU1 Mpro enzymatic inhibition assay (fluorescence). The format is biochemical. The essentials:
as §1

Assay [6] addresses SARS-CoV-2 Mpro (Severe acute respiratory syndrome coronavirus 2, UniProt P0DTD1). In words: SARS-CoV-2 Mpro enzymatic inhibition assay (fluorescence). The class given is biochemical. The essentials:
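Recombinant Mpro expressed in E. coli was preincubated 30 min at room temperature with 10-point, 3-fold serially diluted compound in duplicate. Fluorogenic substrate was then added and incubated 60 min at 30° C, and fluorescence read at Ex/Em 340/490 nm. IC50 came from a four-parameter fit of % inhibition.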

Assay [7] deals with HCoV-229E Mpro (Human coronavirus 229E, UniProt P0C6X1). The experiment in a line: HCoV-229E Mpro enzymatic inhibition assay (fluorescence). The class given is biochemical.
Chain of HCoV-229E Mpro (P0C6X1 2966-3267 limits assumed): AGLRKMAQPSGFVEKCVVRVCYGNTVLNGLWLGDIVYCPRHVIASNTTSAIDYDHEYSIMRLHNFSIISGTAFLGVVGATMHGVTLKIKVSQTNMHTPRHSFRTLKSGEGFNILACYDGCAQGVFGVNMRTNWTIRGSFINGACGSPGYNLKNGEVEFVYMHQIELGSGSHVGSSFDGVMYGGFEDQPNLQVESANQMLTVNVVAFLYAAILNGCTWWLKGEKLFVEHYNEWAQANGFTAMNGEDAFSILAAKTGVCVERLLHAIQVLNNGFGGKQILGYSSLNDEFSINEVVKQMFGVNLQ
The mark [8] stands for this setting: mean, 25 nM protein, 25 μM substrate, 30 min pre-incubation, 60 min at 30° C., read-out: Mpro_SARS-CoV-2 mean IC50.

Chain of HCoV-HKU1 Mpro (P0C6X2 3335-3637 limits assumed): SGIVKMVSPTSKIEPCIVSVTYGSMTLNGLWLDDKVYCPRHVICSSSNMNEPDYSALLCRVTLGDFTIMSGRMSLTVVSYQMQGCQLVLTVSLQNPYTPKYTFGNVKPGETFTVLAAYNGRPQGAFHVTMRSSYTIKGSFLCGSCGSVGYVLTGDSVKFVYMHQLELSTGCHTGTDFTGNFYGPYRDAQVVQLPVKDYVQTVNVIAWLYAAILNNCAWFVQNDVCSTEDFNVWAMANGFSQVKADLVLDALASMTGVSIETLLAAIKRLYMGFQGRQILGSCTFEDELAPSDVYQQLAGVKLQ
Chain of HCoV-OC43 Mpro (P0C6X6 3247-3549 limits assumed): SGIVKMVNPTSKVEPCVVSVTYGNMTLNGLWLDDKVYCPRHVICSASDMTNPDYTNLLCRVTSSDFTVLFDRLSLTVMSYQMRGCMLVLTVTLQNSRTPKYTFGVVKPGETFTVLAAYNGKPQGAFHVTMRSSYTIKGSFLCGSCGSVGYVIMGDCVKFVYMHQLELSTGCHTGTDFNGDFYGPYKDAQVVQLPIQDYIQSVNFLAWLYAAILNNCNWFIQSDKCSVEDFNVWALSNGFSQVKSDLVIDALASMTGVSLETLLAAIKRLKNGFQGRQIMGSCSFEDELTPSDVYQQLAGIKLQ

In the case of `COc1ccc(F)c2[nH]c(C(=O)N3C[C@H]4[C@@H]([C@H]3C(=O)N[C@H](C=O)C[C@@H]3CCNC3=O)C4(C)C)cc12` [Compound 36, (1R,2S,5S)-3-(7-Fluoro-4-methoxy-1H-indole-2-carbonyl)-6,6-dimethyl-N—((S)-1-oxo-3-((S)-2-oxopyrrolidin-3-yl)propan-2-yl)-3-azabicyclo[3.1.0]hexane-2-carboxamide], the IC50 was 31.7 nM in assay [1]; 245 nM in assay [2]; 42.7 nM in assay [3]; 51.7 nM in assay [4]; 35.7 nM in assay [5]; 20.6 nM in assay [6]. In assay [7], this molecule returned a 50% inhibitory concentration (IC50) of 33.2 nM.
Take `CC1(C)[C@@H]2[C@@H](C(=O)N[C@H](C=O)C[C@@H]3CCNC3=O)N(C(=O)c3cc4cc(Cl)ccc4[nH]3)C[C@@H]21` [Compound 89, (1R,2S,5S)-3-(5-Chloro-1H-indole-2-carbonyl)-6,6-dimethyl-N—((S)-1-oxo-3-((S)-2-oxopyrrolidin-3-yl)propan-2-yl)-3-azabicyclo[3.1.0]hexane-2-carboxamide]: the IC50 was determined as 65.4 nM in assay [1]; 395 nM in assay [2]; 88.5 nM in assay [3]; 69.5 nM in assay [4]; 31 nM in assay [5]; 40.9 nM in assay [6]. In assay [7], this molecule registered a 50% inhibitory concentration (IC50) of 44.7 nM.
Regarding `CC1(C)[C@@H]2[C@@H](C(=O)N[C@H](C=O)C[C@@H]3CCNC3=O)N(C(=O)c3cc4ccccc4[nH]3)C[C@@H]21` [Compound 60, (1R,2S,5S)-3-(1H-Indole-2-carbonyl)-6,6-dimethyl-N—((S)-1-oxo-3-((S)-2-oxopyrrolidin-3-yl)propan-2-yl)-3-azabicyclo[3.1.0]hexane-2-carboxamide], the IC50 in assay [1] amounted to 52 nM; in assay [2], 273 nM; in assay [3], 94.9 nM; in assay [4], 54 nM; in assay [5], 28.9 nM; in assay [6] (setting [8]), 26 nM. For the same molecule, it took 53.7 nM to reach half-maximal inhibition in assay [7] (IC50).
Consider `CC(C)(C)CCC(=O)N1C[C@H]2[C@@H]([C@H]1C(=O)N[C@H](C=O)C[C@@H]1CCNC1=O)C2(C)C` [Compound 73, (1R,2S,5S)-3-(4,4-Dimethylpentanoyl)-6,6-dimethyl-N—((S)-1-oxo-3-((S)-2-oxopyrrolidin-3-yl)propan-2-yl)-3-azabicyclo[3.1.0]hexane-2-carboxamide], for which the IC50 was 63.1 nM in assay [1]; 326 nM in assay [2]; 71.4 nM in assay [3]; 182 nM in assay [4]; 57.5 nM in assay [5]; 31.8 nM in assay [6] (setting [8]). 62.6 nM corresponded to half-maximal inhibition in assay [7] (IC50).
Consider `O=C[C@H](C[C@@H]1CCNC1=O)NC(=O)[C@@H]1[C@H]2C[C@H](F)[C@H](C2)N1C(=O)c1cc2ccccc2[nH]1` [Compound 106, (1S,3S,4R,6S)-6-Fluoro-2-(1H-indole-2-carbonyl)-N—((S)-1-oxo-3-((S)-2-oxopyrrolidin-3-yl)propan-2-yl)-2-azabicyclo[2.2.1]heptane-3-carboxamide], for which the 50% inhibitory concentration (IC50) in assay [1] was determined as 176 nM; in assay [2], 859 nM; in assay [3], 118 nM; in assay [4], 156 nM; in assay [5], 39.7 nM; in assay [6], 73.7 nM. In assay [7], this molecule showed an IC50 of 91.2 nM.
Turning to `CC1(C)[C@@H]2[C@@H](C(=O)N[C@H](C=O)C[C@@H]3CCNC3=O)N(C(=O)C3(c4ccccc4)CC3)C[C@@H]21` [Compound 1, (1R,2S,5S)-6,6-dimethyl-N—((S)-1-oxo-3-((S)-2-oxopyrrolidin-3-yl)propan-2-yl)-3-(1-phenylcyclopropanecarbonyl)-3-azabicyclo[3.1.0]hexane-2-carboxamide], the IC50 in assay [1] was found to be 17.3 nM; in assay [2], 129 nM; in assay [3] it was 28.4 nM; in assay [4], 73.7 nM; in assay [5], 11.4 nM; in assay [6], 9.53 nM. Besides, half-maximal inhibition in assay [7] (IC50) required 32.4 nM.
For the molecule `C[C@@H]1C[C@@H](C(=O)N[C@H](C=O)C[C@@H]2CCNC2=O)N(C(=O)c2cc3ccccc3[nH]2)C1` [Compound 107, (2S,4R)-1-(1H-Indole-2-carbonyl)-4-methyl-N—((S)-1-oxo-3-((S)-2-oxopyrrolidin-3-yl)propan-2-yl)pyrrolidine-2-carboxamide], the half-maximal inhibitory concentration (IC50) in assay [1] is 186 nM; in assay [2], 522 nM; in assay [3] it was 195 nM; in assay [4], 62 nM; in assay [5] it was 46.5 nM; in assay [6], 77 nM. This molecule displayed an IC50 in assay [7] of 44.2 nM.
Consider `CC1(C)C[C@@H](C(=O)N[C@H](C=O)C[C@@H]2CCNC2=O)N(C(=O)c2cc3c(F)cccc3[nH]2)C1` [Compound 51, (S)-1-(4-Fluoro-1H-indole-2-carbonyl)-4,4-dimethyl-N—((S)-1-oxo-3-((S)-2-oxopyrrolidin-3-yl)propan-2-yl)pyrrolidine-2-carboxamide], for which the IC50 was 38 nM in assay [1]; 192 nM in assay [2]; 21.9 nM in assay [3]; 22.2 nM in assay [4]; 13 nM in assay [5]; 24.4 nM in assay [6]. The same molecule had a 50% inhibitory concentration (IC50) in assay [7] of 27.3 nM.
As for `CC1(C)[C@@H]2[C@@H](C(=O)N[C@H](C=O)C[C@@H]3CCNC3=O)N(C(=O)c3cc4c(F)cccc4[nH]3)C[C@@H]21` [Compound 15, (1R,2S,5S)-3-(4-fluoro-1H-indole-2-carbonyl)-6,6-dimethyl-N—((S)-1-oxo-3-((S)-2-oxopyrrolidin-3-yl)propan-2-yl)-3-azabicyclo[3.1.0]hexane-2-carboxamide], the IC50 in assay [1] is 32.7 nM; in assay [2], 175 nM; in assay [3] it was 32.8 nM; in assay [4], 44.5 nM; in assay [5], 24.2 nM; in assay [6], 14.5 nM. Besides, in assay [7], half-maximal inhibition (IC50) was put at 39.7 nM.
In the case of `CC1(C)C[C@@H](C(=O)N[C@H](C=O)C[C@@H]2CCNC2=O)N(C(=O)c2cc3cccc(Cl)c3[nH]2)C1` [Compound 9, (S)-1-(7-chloro-1H-indole-2-carbonyl)-4,4-dimethyl-N—((S)-1-oxo-3—((S)-2-oxopyrrolidin-3-yl)propan-2-yl)pyrrolidine-2-carboxamide], the IC50 turned out to be 37.8 nM in assay [1]; 313 nM in assay [2]; 65.1 nM in assay [3]; 52.3 nM in assay [4]; 20.5 nM in assay [5]; 12.1 nM in assay [6]. The same molecule yielded a half-maximal inhibitory concentration (IC50) in assay [7] of 30.9 nM.
On to `CC(C)c1ccc(Cl)c2[nH]c(C(=O)N3C[C@H]4[C@@H]([C@H]3C(=O)N[C@H](C=O)C[C@@H]3CCNC3=O)C4(C)C)cc12` [Compound 88, (1R,2S,5S)-3-(7-Chloro-4-isopropyl-1H-indole-2-carbonyl)-6,6-dimethyl-N—((S)-1-oxo-3-((S)-2-oxopyrrolidin-3-yl)propan-2-yl)-3-azabicyclo[3.1.0]hexane-2-carboxamide], for which the 50% inhibitory concentration (IC50) in assay [1] amounted to 46.2 nM; in assay [2], 239 nM; in assay [3], 44.9 nM; in assay [4], 68.5 nM; in assay [5] it was 21.2 nM; in assay [6] (setting [8]), 40.3 nM. Moreover, the midpoint of inhibition in assay [7], the IC50, lay at 41.5 nM.
For the molecule `O=C[C@H](C[C@@H]1CCNC1=O)NC(=O)[C@@H]1C[C@@H](C2CCCCC2)CN1C(=O)c1cc2ccccc2[nH]1` [Compound 61, (2S,4S)-4-Cyclohexyl-1-(1H-indole-2-carbonyl)-N—((S)-1-oxo-3-((S)-2-oxopyrrolidin-3-yl)propan-2-yl)pyrrolidine-2-carboxamide], the 50% inhibitory concentration (IC50) in assay [1] was found to be 147 nM; in assay [2], 438 nM; in assay [3], 38.7 nM; in assay [4], 200 nM; in assay [5] it was 12.6 nM; in assay [6] (setting [8]), 26 nM. Also, in assay [7], inhibition was half-maximal at 43.2 nM (IC50).
Take `O=C[C@H](C[C@@H]1CCNC1=O)NC(=O)[C@@H]1C[C@@H](C2CCCCC2)CN1C(=O)c1cc2cccc(Cl)c2[nH]1` [Compound 81, (2S,4S)-1-(7-chloro-1H-indole-2-carbonyl)-4-cyclohexyl-N—((S)-1-oxo-3-((S)-2-oxopyrrolidin-3-yl)propan-2-yl)pyrrolidine-2-carboxamide]: the IC50 in assay [1] was 125 nM; in assay [2], 2980 nM; in assay [3], 173 nM; in assay [4] it was 1050 nM; in assay [5] it was 37 nM; in assay [6], 35.3 nM. The molecule also returned an IC50 in assay [7] of 78.2 nM.
Turning to `C[C@H](C(=O)N1C[C@H]2[C@@H]([C@H]1C(=O)N[C@H](C=O)C[C@@H]1CCNC1=O)C2(C)C)C1CCCCC1` [Compound 92, (1R,2S,5S)-3-((S)-2-Cyclohexylpropanoyl)-6,6-dimethyl-N—((S)-1-oxo-3-((S)-2-oxopyrrolidin-3-yl)propan-2-yl)-3-azabicyclo[3.1.0]hexane-2-carboxamide], the half-maximal inhibitory concentration (IC50) came out at 89.6 nM in assay [1]; 418 nM in assay [2]; 109 nM in assay [3]; 162 nM in assay [4]; 39.4 nM in assay [5]; 45 nM in assay [6] (setting [8]). Besides, it took 43.9 nM to reach half-maximal inhibition in assay [7] (IC50).
